Laboratory results published in PMC10663516 (Scientific Reports, 2023).
Like-named read-outs stand apart in the source and are kept apart here.

What was measured:
primary CLL blasts = test: Growth inhibition of primary CLL blasts (Mosaic Spot Assay); assay type: cell-based; details: Homo sapiens, 96 h, 4 days
Description: A cytotoxic dose of cisplatin acted as a positive control, with no drug treatment as a negative control.

DLBCL = details: cited from earlier work
ST949B/ABC = test: DLBCL PDX model; assay type: in vivo, mouse; details: 9 days, QD PO, TL-895 and ibrutinib 25 mg/kg, acalabrutinib 30 mg/kg
Description: (§1) All three compounds were formulated in a solution of 20% kleptose (hydroxypropyl β-cyclodextrin) in 50 mM citrate and administered QD PO during the treatment periods given for each model.
For mean values > 0: %ΔT/ΔC=endtumorvolumetreatment-starttumorvolumetreatment/endtumorvolumecontrol-starttumorvolumecontrol×100
For mean values ≤ 0 (i.e. regression): %ΔT/ΔC=endtumorvolumetreatment-starttumorvolumetreatment/starttumorvolumecontrol×100
(§2) The research use of patient material in PDX models at Crown Bioscience, XenoSTART and EPO-GmbH was approved by the local Institutional Ethical Review Boards and the patients provided written informed consent. Molecular analysis was performed on samples from each model using the EdgeSeq DLBCL Cell of Origin Assay (HTG Molecular Diagnostics, Tucson, AZ, USA) to confirm ABC-GCB DLBCL subtype.
Stock mice inoculated with human DLBCL cancer tissues were euthanized by progressive hypoxemia with CO2 and tumors were harvested. Tumor fragments were used at three different contract research organizations for xenotransplantation into different mouse strains for the following models: (1) 6-week-old female nude (NMRI:nu/nu) or CB17-SCID mice (Javier Labs, France): Ly12638, Ly11212, and Ly13005 (Experimental Pharmacology and Oncology Berlin-Buch GmbH [EPO-GmbH], Germany); (2) 6–8-week-old female BALB/c nude or NOD SCID mice (Beijing HFK Bioscience Co., Ltd. Beijing, China): LY0257, LY2214, LY3604, LY2298, LY2264, LY2318, and LY2345 (Crown Bioscience Inc, Taicang, China); and (3) 6–12-week-old female CB-17 SCID mice (CB17/Icr-Prkdc^scid/IcrIcoCrl Charles River Laboratories, Wilmington, MA, USA): ST118B, ST949B, ST359, ST949, ST2761B, ST2963, ST1361, ST2078, ST1735B, ST2902, and ST3497 (XenoSTART, San Antonio, TX, USA).
(§3) When the average tumor volume was within a pre-determined range (100–300 mm^3), mice were assigned to treatment groups to balance the mean starting tumor volumes (n = 5 for all models except LY13005, which was n = 3). […] Tumor volumes were recorded 2–3 times per week. Mean %∆T/∆C was calculated at the end of treatment as described above for MCL models.
(§4) Tumor volume was used as the measure of efficacy for statistical analyses of in vivo xenograft studies. Tumor volume data from individual studies were log-transformed and statistically analyzed using repeated measures analysis of covariance (RM-ANCOVA) to determine significant treatment effects, followed by post hoc Tukey’s test for multiple pairwise comparisons (all α = 0.05) using R software. Day 0 data were used only as covariates in the analyses because tumor measurements on that day were recorded before the first treatments were administered.

[1] = cited from earlier work
DLBCL PDX models = test: 21 DLBCL PDX models, overall tumor response; assay type: in vivo, mouse
Description: as §2
Stock mice inoculated with human DLBCL cancer tissues were euthanized by progressive hypoxemia with CO2 and tumors were harvested. […]
as §3
as §4, with “administered. […]” for “administered.”

Jeko-1 = test: Cell line-derived xenograft model of MCL; assay type: in vivo, mouse; details: Jeko-1 xenograft, nude mice, 25 mg/kg QD PO, 20 days
Description: All three compounds were formulated in a solution of 20% kleptose (hydroxypropyl β-cyclodextrin) in 50 mM citrate and administered QD PO during the treatment periods given for each model. […] Studies in the Jeko-1 mouse MCL model were performed at EMD Serono Research and Development Institute, Billerica, MA, USA. Six-to-eight-week old female nude mice (Crl:NU-Foxn1nu; Charles River Laboratories, Wilmington) were inoculated with Jeko-1 cells (obtained from ATCC) by s.c. injection (10 × 10^6 cells in 0.2 mL phosphate buffered saline with Matrigel). […] Tumor volumes were recorded twice weekly. Mean %∆T/∆C was calculated at the end of treatment as outlined above. Tumor volume was used as the measure of efficacy for statistical analyses of in vivo xenograft studies. Tumor volume data from individual studies were log-transformed and statistically analyzed using repeated measures analysis of covariance (RM-ANCOVA) to determine significant treatment effects, followed by post hoc Tukey’s test for multiple pairwise comparisons (all α = 0.05) using R software. Day 0 data were used only as covariates in the analyses because tumor measurements on that day were recorded before the first treatments were administered.

Mino = test: Cell line-derived xenograft model of MCL; details: SCID mice, 25 mg/kg QD PO, 27 days
Maver-1 = test: Cell line-derived xenograft model of MCL; assay type: in vivo, mouse; details: Maver-1 xenograft, SCID mice, 25 mg/kg QD PO, 14 days
Description: as §1
(§5) Maver-1, Granta519, and Mino mouse MCL studies were performed at Shanghai ChemPartner Co., Ltd, Shanghai, China. Five-to-six-week old female severe combined immune deficiency (SCID) mice (Vital River Lab Animal Technology Co., Ltd, Beijing, China) were inoculated with Maver-1, Granta519, or Mino cells (all obtained from ATCC) by subcutaneous (s.c.) injection (0.2 mL containing 5 × 10^7 cells/mL in a 1:1 suspension of medium:Matrigel).
(§6) […]. Tumor volumes were recorded three times per week. Tumor growth inhibition was expressed as the mean percentage treatment (T)/control (C) ratio [%∆T/∆C] and was calculated at the end of treatment.
as §4

Granta519 = test: Cell line-derived xenograft model of MCL; assay type: in vivo, mouse; details: SCID mice, 25 mg/kg QD PO, 14 days
Description: as §1, §5, §6, §4

B-cell malignancies = details: cited from earlier work
HepG2 cells = test: Cytotoxicity by ATP content (CellTiter-Glo); assay type: cell-based, human; details: HepG2 EC50 at 24 and 72 h
Description: (§7) HepG2 cells (human hepatocellular carcinoma [epithelial]) and primary human hepatocytes were cultured in DMEM/F-12 medium supplemented with antibiotics, sodium pyruvate, insulin and 10% fetal calf serum. During the testing steps, the medium was replaced by serum-free media containing bovine serum albumin (BSA) and dexamethasone. All the cultures are incubated at 37 °C in a humidified chamber containing 5% CO2. […] HepG2 and primary hepatocytes were cultured in 96-well tissue culture plates either for luminescence (2E4/well in 100 µL) or pre-coated with collagen I (3.5E4/well in 100 µL, respectively).
(§8) For the cytotoxicity data, the % values relative (%RV) to the vehicle controls were calculated for each dose level. […] The overall EC50s were the averages of the values obtained from each experiment (PRISM® GraphPad™ Software, Boston, MA).

[2] = Cytotoxicity by ATP content (CellTiter-Glo); assay type: cell-based, human; details: human, HepG2 cells
Description: as §7, §8

| SMILES | inhibition at 0.008 µM (primary CLL blasts) [%] | inhibition at 0.04 µM (primary CLL blasts) [%] | inhibition at 0.2 µM (primary CLL blasts) [%] | inhibition at 1 µM (primary CLL blasts) [%] | inhibition at 5 µM (primary CLL blasts) [%] | inhibition at 25 µM (primary CLL blasts) [%] | IC50 (primary CLL blasts) [nM] | %ΔT/ΔC (ST949B/ABC) [%] | Tumor response rate (models with P < 0.05 versus vehicle) (DLBCL PDX models) [%] | Tumor growth vs vehicle (Jeko-1) | Tumor growth vs vehicle (Mino) | Tumor growth vs vehicle (Maver-1) | Tumor growth vs vehicle (Granta519) | other results |
| --- | --- | --- | --- | --- | --- | --- | --- | --- | --- | --- | --- | --- | --- | --- |
| CC#CC(=O)N1CCC[C@H]1c1nc(-c2ccc(C(=O)Nc3ccccn3)cc2)c2c(N)nccn12 [Acalabrutinib] | 34 | 40 | 47 | 56 | 64 | 80 | ~200 | 103 | 24 |  |  |  |  | Combined overall response rate (ORR) (DLBCL; patients with either ABC- or GCB-DLBCL): 24%; Exposure ([1]; MCL, acalabrutinib oral 100 mg BID): 1111 ng·h/mL |
| C=CC(=O)N1CCC[C@@H](n2nc(-c3ccc(Oc4ccccc4)cc3)c3c(N)ncnc32)C1 [Ibrutinib] |  |  |  |  |  |  |  |  | 10 | Neither TL-895 nor ibrutinib had any significant effects on tumor growth | Significant treatment effects were observed for TL-895 and ibrutinib versus vehicle | Neither TL-895 nor ibrutinib had any significant effects on tumor growth | Neither TL-895 nor ibrutinib had any significant effects on tumor growth | ORR (DLBCL; combined with R-ICE, patients with GCB-DLBCL): 90%; Reported response rate (DLBCL; patients with ABC-DLBCL): 37%; Reported response rate (DLBCL; patients with GCB-DLBLC): 5%; ORR (DLBCL; patients with wild type CD79B ABC-DLBCL): 31%; Area under the curve (AUC) ([1]; patients with MCL, ibrutinib 560 mg QD): 956 ng·h/mL |
| C=CC(=O)N1CCC(F)(CNc2ncnc(N)c2-c2ccc(Oc3ccccc3)cc2)CC1 [TL-895] | 43 | 50 | 53 | 61 | 72 | 90 | ~200 | 39 | 24 | Neither TL-895 nor ibrutinib had any significant effects on tumor growth | significantly inhibited tumor growth | Neither TL-895 nor ibrutinib had any significant effects on tumor growth | Neither TL-895 nor ibrutinib had any significant effects on tumor growth | Complete responses in patients with DLBCL (DLBCL; preliminary evidence): 1; Dose-limiting toxicities (B-cell malignancies; doses up to 900 mg/day): no dose-limiting toxicities were reported; Maximum tolerated dose (B-cell malignancies; doses up to 900 mg/day): not reached; Patients with best response of PR or higher (B-cell malignancies; monotherapy): Half of patients; Patients with treatment-related grade 3–4 adverse events (B-cell malignancies; three patients): 17%; Cytotoxicity EC50 in HepG2 cells relative to IC50s in sensitive MCL and DLBCL cell lines (HepG2 cells): 5–5000 fold; EC50 at 24 h ([2]; HepG2, 24 h): > 50000 nM; EC50 at 72 h ([2]; HepG2, 72 h): > 50000 nM |
